# Laboratory results reported in patent US20140200215A1, “LYSOPHOSPHATIDIC ACID RECEPTOR ANTAGONISTS” (INTERMUNE, INC., priority 2013, published 2014).
# Experiments:
# [1] = tested on: primary fibroblasts (including lung, dermal), HFL-1, 3T3 and CHO cells expressing LPA1R; assay: LPA1 migration assay (Oris cell migration); assay type: cell-based; details: inhibition of cell migration in response to chemoattractant (LPA, serum)
# Description: Migration of primary fibroblasts (including lung, dermal), HFL-1, 3T3 and CHO cells expressing LPA1R were monitored using the Oris™ assay (Platypus Technologies, Madison, Wis.). These cells were dye (Cell Tracker Green™) loaded and serum starved for 12-24 hrs. In response to chemoattractants such as LPA and serum, the cells migrated inward in to the exclusion (detection) zone. After fixing, fluorescent cells in the detection zone were counted using a high content reader. The ability of LPA1 antagonists to inhibit cell migration is quantified by plotting cell number vs. compound concentration and curve fitting the resulting dose-response curve to a 4 parameter logistic function.
# Human LPA1 = Human LPA1 (Homo sapiens, UniProt Q92633); assay: Beta-Arrestin based assay for human LPA1R antagonists (PathHunter); assay type: cell-based; details: CHO cells expressing ProLink tagged human LPA1R; antagonist mode, 0.5 micromolar LPA
# Procedure: Beta-Arrestin Based Assays for Human LPA1R Antagonists and Agonists
# A CHO cell line stably expressing the ProLink™ tagged human LPA1R was obtained from DiscoverX Inc, Fremont, Calif. In this system, β-Arrestin was fused to an N-terminal deletion mutant of β-galactosidase (termed the enzyme acceptor or EA), the human LPA1R was fused to a smaller (42 amino acids) weakly complementing fragment termed ProLink™. […] Cell handling and assays were performed according to protocols specified in the PathHunter® assays kits (DiscoverX, Fremont, Calif.). Assays were performed in quadruplicate in white 384 well plates. End point luminescence data were plotted and fit to a 4 parameter logistic function to obtain IC50 values. For antagonist assays, an […] concentration of agonist (LPA) equal to 0.5 micromolar was used.
# Chain of Human LPA1 (Q92633 whole entry): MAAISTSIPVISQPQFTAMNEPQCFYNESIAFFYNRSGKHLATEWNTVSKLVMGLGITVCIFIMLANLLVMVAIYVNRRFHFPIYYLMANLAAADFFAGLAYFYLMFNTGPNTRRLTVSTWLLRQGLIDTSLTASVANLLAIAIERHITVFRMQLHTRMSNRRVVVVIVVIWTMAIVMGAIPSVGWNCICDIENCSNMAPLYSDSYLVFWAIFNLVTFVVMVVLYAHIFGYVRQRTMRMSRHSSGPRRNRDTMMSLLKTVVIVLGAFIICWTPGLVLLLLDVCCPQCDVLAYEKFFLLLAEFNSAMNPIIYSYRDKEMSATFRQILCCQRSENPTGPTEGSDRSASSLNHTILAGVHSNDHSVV
Structure (SMILES),EC50 (Human LPA1) [nM],EC50 [1] [nM]
"Cc1noc(-c2ccc(-c3ccc4c(c3)CCCC4C(=O)O)cc2)c1NC(=O)O[C@H](C)c1ccccc1 (single isomer, unassigned) [IT038]",,> 500
"Cc1noc(-c2ccc(-c3ccc4c(c3)CCCC4C(=O)O)cc2)c1NC(=O)O[C@H](C)c1ccccc1 (single isomer, unassigned) [IT039]",,> 500
"Cc1noc(-c2ccc(-c3ccc(C4(C(=O)O)CC4)cc3)cc2)c1NC(=O)O[C@H]1CCCc2ccccc21 (single isomer, unassigned) [IT058]",> 500,> 500
"Cc1nsc(C2CCC(c3ccc(C4(C(=O)O)CC4)cc3)CC2)c1NC(=O)O[C@H](C)c1ccccc1 (single isomer, unassigned) [IT059]",50 to 500,> 500
"Cc1nsc(C2CCC(c3ccc(C4(C(=O)O)CC4)cc3)CC2)c1NC(=O)O[C@H](C)c1ccccc1 (single isomer, unassigned) [IT060]",> 500,> 500
"Cc1nsc(C#Cc2ccc3c(c2)CCC(C(=O)O)C3)c1NC(=O)O[C@H](C)c1ccccc1 (single isomer, unassigned) [IT062]",> 500,> 500
"Cc1nsc(C#Cc2ccc3c(c2)CCC(C(=O)O)C3)c1NC(=O)O[C@H](C)c1ccccc1 (single isomer, unassigned) [IT063]",> 500,> 500
"Cc1noc(-c2ccc(-c3ccc(C4(C(=O)O)CC4)cc3)cc2)c1NC(=O)OC(C)c1cccc2ocnc12 (single isomer, unassigned) [IT077]",50 to 500,
"Cc1nsc(-c2ccc(-c3ccc(C4(C(=O)O)CC4)cc3)cc2)c1NC(=O)OC(c1ccccc1)C(F)(F)F (single isomer, unassigned) [IT078]",< 50,50 to 500
"Cc1nsc(-c2ccc(-c3ccc(C4(C(=O)O)CC4)cc3)cc2)c1NC(=O)OC(c1ccccc1)C(F)(F)F (single isomer, unassigned) [IT079]",> 500,> 500
Cc1noc(C#Cc2ccc(CC3(C(=O)O)CC3)cc2)c1NC(=O)O[C@H](C)c1ccccc1 [IT001],50 to 500,50 to 500
Cc1noc(C#Cc2ccc(C3(CC(=O)O)CC3)cc2)c1NC(=O)O[C@H](C)c1ccccc1 [IT002],50 to 500,50 to 500
Cc1noc(C#Cc2ccc(NC(=O)C3(C(=O)O)CC3)cc2)c1NC(=O)O[C@H](C)c1ccccc1 [IT005],> 500,> 500
Cc1noc(C#Cc2ccc(CC3(C(=O)O)CC3)cc2)c1NC(=O)O[C@H](C)c1ccccc1 [IT006],50 to 500,
C[C@@H](OC(=O)Nc1c(-c2ccc(-c3ccc(C4(C(=O)O)CC4)cc3)cc2)nc2n1CCNC2)c1ccccc1 [IT019],> 500,> 500
Cc1nsc(-c2ccc(-c3cc4sc(C(=O)O)cc4s3)cc2)c1NC(=O)O[C@H](C)c1ccccc1 [IT025],> 500,> 500
Cc1nsc(-c2cc(F)c(-c3ccc(C4(C(=O)O)CCOCC4)cc3)cc2F)c1NC(=O)O[C@H](C)c1ccccc1 [IT042],< 50,50 to 500
C[C@@H](OC(=O)Nc1c(-c2ccc(-c3ccc(C4(C(=O)O)CC4)cc3)cc2)nn2ccccc12)c1ccccc1 [IT052],,> 500
Cc1nsc(-c2ccc3cc(C4CCC(C(=O)O)CC4)ccc3c2)c1NC(=O)O[C@H](C)c1ccccc1 (stereo partly shown) [IT054],> 500,> 500
Cc1nsc(-c2ccc(N3CCC(CC(=O)O)CC3)cc2)c1NC(=O)O[C@H](C)c1ccccc1 [IT068],> 500,> 500
C[C@@H](OC(=O)Nc1c(C(F)(F)F)nnn1-c1ccc(-c2ccc(C3(C(=O)O)CC3)cc2)cc1)c1ccccc1 [IT072],< 50,> 500
C[C@@H](OC(=O)Nc1c(C#Cc2cc3sc(C4(C(=O)O)CC4)cc3s2)oc2ccccc12)c1ccccc1 [IT074],50 to 500,> 500
C[C@@H](OC(=O)Nc1c(-c2cc(F)c(-c3ccc(C4(C(=O)O)CC4)cc3)cc2F)oc2ccccc12)c1ccccc1 [IT075],< 50,50 to 500
Cc1nsc(-c2cc3cc4sc(C(=O)O)cc4cc3s2)c1NC(=O)O[C@H](C)c1ccccc1 [IT080],> 500,
COCC(COC(=O)C1(c2cc3sc(C#Cc4cnn(C)c4NC(=O)O[C@H](C)c4ccccc4)cc3s2)CC1)OC (stereo partly shown) [IT 100],< 50,

# Further lines, with some results ahead:
EC50 (Human LPA1) [nM],Structure (SMILES),EC50 [1] [nM]
> 500,"Cc1noc(-c2ccc(-c3ccc(C4(C(=O)O)CC4)cc3)cc2)c1NC(=O)O[C@@H]1CCCc2ccccc21 (single isomer, unassigned) [IT057]",> 500
> 500,"Cc1noc(-c2ccc(-c3ccc(C4(C(=O)O)CC4)cc3)cc2)c1NC(=O)OC(C)c1cccc2ocnc12 (single isomer, unassigned) [IT076]",
> 500,Cc1nsc(-c2ccc([C@H]3CC[C@@H](C(=O)O)CC3)cc2)c1NC(=O)O[C@H](C)c1ccccc1 [IT007],> 500
> 500,Cc1nsc(-c2ccc([C@H]3CC[C@H](C(=O)O)CC3)cc2)c1NC(=O)O[C@H](C)c1ccccc1 [IT008],> 500
50 to 500,Cc1noc(-c2ccc(-c3ccc4c(c3)NC(=O)CC4C(=O)O)cc2)c1NC(=O)O[C@H](C)c1ccccc1 (stereo partly shown) [IT011],> 500
> 500,Cc1noc(-c2ccc(-c3ccc4c(c3)CCOC4C(=O)O)cc2)c1NC(=O)O[C@H](C)c1ccccc1 (stereo partly shown) [IT012],> 500
> 500,Cc1noc(C#Cc2ccc(/C=C/C(=O)O)cc2)c1NC(=O)O[C@H](C)c1ccccc1 [IT013],> 500
> 500,CCN1CCn2c(nc(-c3ccc(-c4ccc(C5(C(=O)O)CC5)cc4)cc3)c2NC(=O)O[C@H](C)c2ccccc2)C1 [IT024],> 500
> 500,C[C@@H](OC(=O)Nc1c(-c2ccc(C#CC3(C(=O)O)CC3)cc2)nnn1C)c1ccccc1 [IT036],> 500
50 to 500,Cc1noc(-c2ccc(-c3ccc4c(c3)OCCC4C(=O)O)cc2)c1NC(=O)O[C@H](C)c1ccccc1 (stereo partly shown) [IT037],
< 50,C[C@@H](OC(=O)Nc1c(-c2cc(F)c(-c3ccc(C4(C(=O)O)CCOCC4)cc3)cc2F)cnn1C)c1ccccc1 [IT044],50 to 500
> 500,Cc1nsc(-c2cc(F)c(-c3ccc(C4(C(=O)O)CCOCC4)cc3)cc2F)c1NC(=O)OCc1ccccc1 [IT045],> 500
< 50,C[C@@H](OC(=O)Nc1c(-c2cc(F)c(-c3ccc(C4(C(=O)O)CC4)cc3)cc2F)nn2ccccc12)c1ccccc1 [IT049],50 to 500
> 500,Cc1nsc(-c2ccc3cc(C4CCC(C(=O)O)CC4)ccc3c2)c1NC(=O)O[C@H](C)c1ccccc1 (stereo partly shown) [IT053],> 500
50 to 500,C[C@@H](OC(=O)Nc1c(-c2cc(F)c(-c3ccc(C4(C(=O)O)CCOCC4)cc3)cc2F)nnn1C)c1ccccc1 [IT055],50 to 500
50 to 500,Cc1noc(C#Cc2ccc3cc(CC4(C(=O)O)CC4)ccc3c2)c1NC(=O)O[C@H](C)c1ccccc1 [IT065],> 500
> 500,C[C@@H](OC(=O)Nc1ncsc1C#Cc1cc2sc(C3(C(=O)O)CC3)cc2s1)c1ccccc1 [IT101],
< 50,Cc1noc(C#Cc2nc3sc(C4(C(=O)O)CC4)cc3s2)c1NC(=O)O[C@H](C)c1ccccc1 [IT 102],
< 50,C[C@@H](OC(=O)Nc1c(C#Cc2sc3cc(C4(C(=O)O)CC4)sc3c2C(F)(F)F)cnn1C)c1ccccc1 [IT 103],
